Measurements: ChEMBL document CHEMBL6083244, “Identification of 3-methyl-1-(3-methylpyridin-2-yl)-1H-pyrazol-5-ol as promising neuroprotective agent” (Bioorg Med Chem Lett, 2024)
≈ marks a conversion by molar mass, not a printed value. Calls of active or inactive are those of the source. The calls are words filed in the database; no cut-off is given here.

What was measured:
[1] = Antioxidant activity assessed as DPPH radical scavenging activity at 8 uM relative to control; assay type: functional
[2] = Antioxidant activity assessed as ABTS radical scavenging activity at 8 uM relative to control; assay type: functional
SH-SY5Y [3] = test: Neuroprotective activity against OGD/R induced cell injury in human SH-SY5Y cells assessed as increase in cell survival rate at 1 uM (reference value: 63.22 +/- 2.12%); assay type: functional; settings: read-out: Survival
[4] = Antioxidant activity assessed as DPPH radical scavenging activity; assay type: functional
[5] = Antioxidant activity assessed as oxygen radical scavenging by measuring trolox equivalents; assay type: functional
[6] = Antioxidant activity assessed as ABTS radical scavenging activity; assay type: functional
[7] = Antioxidant activity assessed as DPPH radical scavenging activity measured after 30 mins by spectrophotometry assay; assay type: functional
Mus musculus [8] = test: Neuroprotective activity against tMCAO- induced brain injury in ICR mouse model assessed as reduction in infarct volume at 10 mg/kg, ip (reference value: 43.1%); assay type: functional
[9] = Antioxidant activity assessed as DPPH radical scavenging activity measured after 30 mins; assay type: functional
Mus musculus [10] = test: Neuroprotective activity against tMCAO- induced brain injury in ICR mouse model assessed as appearance of regularly arranged neuronal nissl bodies at 10 mg/kg, ip by nissl staining based assay; assay type: functional, organism-based
[11] = Metal chelating activity assessed as Cu2+ chelation by UV-Vis spectroscopy
SH-SY5Y [12] = test: Neuroprotective activity against OGD/R induced cell injury in human SH-SY5Y cells assessed as reduction in cell crumpling at 1 uM pretreated with OGD/R for 4 hrs followed by compound addition and measured after 24 hrs by light microscopic analysis; assay type: functional, cell-based
Mus musculus [13] = test: Neuroprotective activity against tMCAO- induced brain injury in ICR mouse model assessed as restoration of pyramidal cells morphology at 10 mg/kg, ip by H and E staining based assay; assay type: functional, organism-based
Mus musculus [14] = test: Neuroprotective activity against tMCAO- induced brain injury in ICR mouse model assessed as restoration of pyramidal cells size at 10 mg/kg, ip by H and E staining based assay; assay type: functional, organism-based
Mus musculus [15] = test: Neuroprotective activity against tMCAO- induced brain injury in ICR mouse model assessed as appearance of abundant nissl granules at 10 mg/kg, ip by nissl staining based assay; assay type: functional, organism-based
SH-SY5Y [16] = test: Neuroprotective activity against OGD/R induced cell injury in human SH-SY5Y cells assessed as reduction in cell shrinkage at 1 uM pretreated with OGD/R for 4 hrs followed by compound addition and measured after 24 hrs by light microscopic analysis; assay type: functional, cell-based
Mus musculus [17] = species on record: Mus musculus; test: Neuroprotective activity against tMCAO- induced brain injury in ICR mouse model assessed as appearance of tightly arranged neuronal cells in CA1 region by H and E staining based assay; assay type: functional, organism-based

Row | SMILES | Activity [1] | Activity [2] | viability at 1 µM (SH-SY5Y [3]) | IC50 ([4]; read-out: IC50) | Activity [5] | IC50 [6] | further results
1 | Cc1cc(O)n(-c2ccc(C(F)(F)F)cn2)n1 | 30.3% | 55% | 79.1% | 15.2 µM | 1.14 | 16.1 µM | –
2 | C[C@H]1[C@H](C)CC[C@]2(C(=O)O)CC[C@]3(C)C(=CC[C@@H]4[C@@]5(C)CC[C@H](O)C(C)(C)[C@@H]5CC[C@]43C)[C@H]12 [URSOLIC ACID] | – | – | – | – | – | – | IC50 [4]: 59 µg/mL
3 | Oc1ccc(/C=C/c2cc(O)cc(O)c2)cc1 [RESVERATROL] | – | – | – | – | – | – | IC50 [7]: 65 µM
4 | Cc1cc(O)n(-c2ccc(F)cn2)n1 | 21.4% | 51.6% | 89.5% | 19.8 µM | 1.06 | 13.8 µM | –
5 | Cc1cc(C)nc(-n2nc(C)cc2O)n1 | 51.6% | 63.9% | 74.7% | 18.5 µM | 1.56 | 14.6 µM | –
6 | COc1cc(/C=C/C(=O)CC(=O)/C=C/c2ccc(O)c(OC)c2)ccc1O [CURCUMIN] | – | – | – | – | – | – | IC50 [4]: 28 µg/mL
7 | Oc1cc(C(F)(F)F)nn1-c1ncccn1 | 36.4% | 63.2% | 72.7% | 45.3 µM | 1.19 | 13.9 µM | –
8 | OCc1ccc(-n2nc(C(F)(F)F)cc2O)nc1 | 40.4% | 57.1% | 78.1% | 63.9 µM | 0.91 | 28 µM | Activity (Mus musculus [8]): Not active; Showed Weak Activity
9 | Oc1cc(C(F)(F)F)nn1-c1ccc(F)cn1 | 35.7% | 58.3% | 71.8% | 43.1 µM | 1.19 | 16.6 µM | –
10 | Oc1cc(C(F)(F)F)nn1-c1ncc(F)cn1 | 30.9% | 65.4% | 80.5% | 45.5 µM | 1.07 | 16.3 µM | –
11 | Cc1cc(O)n(-c2ccc(Cl)cn2)n1 | 53% | 52% | 73.4% | 18.8 µM | 1.27 | 14.8 µM | –
12 | Cc1nc(C)c(-n2nc(C(F)(F)F)cc2O)nc1C | 30.6% | 55.6% | 75.4% | > 120 µM | 1.34 | 19.7 µM | –
13 | O=C(c1cc(O)c(O)c(O)c1)c1cc(O)c(Br)cc1O | – | – | – | – | – | – | IC50 [4]: 14.4 µg/mL
14 | Oc1cc(C(F)(F)F)nn1-c1ccc(C(F)(F)F)cn1 | 28.4% | 68.1% | 84.5% | 35.8 µM | 1.1 | 14.8 µM | –
15 | O=C1S/C(=C\c2cn(-c3ccccc3)nc2-c2ccc(O)cc2)C(=O)N1Cc1ccccc1 | – | – | – | – | – | – | IC50 [9]: 110.8 µg/mL (≈ 244 µM)
16 | CC1=NN(c2ncc(Cl)cc2Cl)C(=O)C1 | 6.73% | 31.9% | 82.5% | > 120 µM | 1.42 | 19.4 µM | –
17 | Oc1cc(C(F)(F)F)nn1-c1ncc(Cl)cc1Cl | 29.4% | 46% | 76.6% | > 120 µM | 1.3 | 20.4 µM | –
18 | O=C(O)/C=C/c1ccc(O)c(O)c1 [CAFFEIC ACID] | – | – | – | – | – | – | IC50 [4]: 0.8 µg/mL
19 | CC1=NN(c2ccccc2)C(=O)C1 [EDARAVONE] | 21.4% | 52.3% | 72.2% | 42.5 µM | 1.46 | 15.8 µM | –
20 | Cc1cc(O)n(-c2ncccc2C(F)(F)F)n1 | 2.85% | 5.92% | 77.4% | – | 0.98 | – | –
21 | Oc1cc(C(F)(F)F)nn1-c1ncccc1C(F)(F)F | 34.7% | 36.1% | 70.8% | > 120 µM | 1.22 | 35.5 µM | –
22 | Cc1cc(O)n(-c2ccc(CO)cn2)n1 | 34.7% | 46.4% | 81.7% | 32 µM | 0.8 | 20.5 µM | –
23 | Cc1cc(O)n(-c2ncccc2C)n1 | 49.9% | 54.7% | 87% | 16.1 µM | 1.88 | 13.7 µM | Activity (Mus musculus [10]): Active; Activity [11]: Active; Activity (SH-SY5Y [12]): Active; Activity (Mus musculus [13]): Active; Activity (Mus musculus [8]): 24.9%; Activity (Mus musculus [14]): Active; Activity (Mus musculus [15]): Active; Activity (SH-SY5Y [16]): Active; Activity (Mus musculus [17]): Active
24 | Cc1cc(O)n(-c2cccc(CO)n2)n1 | 28.5% | 49.6% | 75.4% | 59.5 µM | 1.06 | 18.9 µM | –
25 | Cc1cc(O)n(-c2ncccc2Cl)n1 | 2.36% | 4.56% | 71.5% | – | 0.9 | – | –
26 | Cc1cc(O)n(-c2ccccn2)n1 | 35.1% | 69.1% | 81.5% | 15.4 µM | 1.27 | 12.3 µM | –
27 | O=C(O)C1CS[C@@H](c2cccc(F)c2F)N1 (stereo not given in full) | – | – | – | 830 µM | – | – | –
28 | Cc1c(C)c2c(c(C)c1O)CCC(C)(C(=O)O)O2 (stereo not given) | – | – | – | – | 1 | – | –
29 | Oc1cc(C(F)(F)F)nn1-c1ncccc1Cl | 28.1% | 40.4% | 78.8% | > 120 µM | 1.13 | 19.5 µM | –
